One series deals with 6-cell line panel. The series is described as follows: cytotoxicity in a 6-cell line panel. Type of series: cell-based. Conditions: read-out: mean IC50, cytotoxicity. As to the method:
(§1) In particular there was a clear in vitro cytotoxicity observed against ABAE cells (bovine endothelial cell line, 0.03 μg/ml).
(§2) General Experimental Procedures. NMR spectra were obtained on a Bruker DRX 500 MHz spectrometer, equipped with a 5-mm TXI cryoprobe. Proton and carbon chemical shifts are reported in ppm relative to DMSO at δH 2.49 and δC 39.6. LC-NMR on an enriched psoroxanthin (4) sample was conducted with a Varian Inova 600 MHz instrument, using a YMC ODS-AQ (C18) column, 4.6×150 mm, 3μ and mobile phase water-acetonitrile 7:3, isocratic, 1.2 ml/min flow rate. Low-resolution MS and MS/MS measurements were performed by +νe ESI on a Thermo Scientific Finnigan SSQ7000 (single quadrupole MS), TSQ7000 (triple quadrupole MS), or LCQ Classic (ion trap MS). High-resolution MS data were determined by HR +νe ESI on a Thermo Scientific Finnigan MAT900 (magnetic sector MS, polypropylene glycol reference) or Orbitrap (hybrid ion trap-FTICR MS). IR spectra were recorded with a Perkin-Elmer System 2000 FT-IR instrument (thin film-NaCl). UV spectra were obtained using a Hewlett-Packard 8452A diode array spectrophotometer. Sephadex LH-20 (Pharmacia Biotech) and LiChroprep Si 60, 25-40 μm (EM Separations) were used for column chromatography. HPLC(C18) conditions: Analytical: Agilent HP-1100, Waters corp. […]

The test system of a further series is HCT-116. In words: in vitro cytotoxicity, tumor cell line HCT-116. Type of series: cell-based. Conditions: Homo sapiens. The protocol:
as §2
(§3) The SOS active compounds 1 and 4 were evaluated for in vitro cytotoxicity in a variety of tumor cell lines. […]

A further series has as its system A2780. In words: in vitro cytotoxicity, tumor cell line A2780. Type of series: cell-based. Particulars: Homo sapiens. As to the method:
as §2, §3

Series [1] can be described thus: in vitro cytotoxicity, ABAE bovine endothelial cells. It is filed as cell-based. Particulars: bovine, ABAE endothelial cells; ABAE cell line. The protocol:
as §1
as §2, with “corp. X-Terra […] (C18) column, 4.6×150 mm; mobile phase: 0.01 N potassium phosphate buffer pH 3.5-acetonitrile gradient, flow rate 1.2 ml/min. UV 254 nm (Hook, D. J., More, C. F., Yacobucci, J. J., Dubay, G., O'Connor, S.; J. Chromatogr., 1987, 385, 99-108.) Preparative: Beckman System Gold workstation, YMC ODS-A 5μ (C18) column, 20×100 mm. For TLC biogram (SOS) analyses, Silica gel plates (Analtech, 0.25 mm) with chloroform-methanol mixtures (i.e. 95:5 v/v) as the mobile phase were used. For HPLC biogram (SOS) analyses, fractions were collected into Beckman 96-deepwell plates using a Gilson 215 liquid handler and dried under nitrogen stream prior to bioassay.” for “corp.”
as §3

Series [2] relates to ABAE cells (bovine endothelial cell line). The series is described as above. It is filed as cell-based. Particulars: versus the tumor cell lines. As to the method: as §1
as §2, with “corp. X-Terra […] (C18) column, 4.6×150 mm; mobile phase: 0.01 N potassium phosphate buffer pH 3.5-acetonitrile gradient, flow rate 1.2 ml/min. UV 254 nm (Hook, D. J., More, C. F., Yacobucci, J. J., Dubay, G., O'Connor, S.; J. Chromatogr., 1987, 385, 99-108.) Preparative: Beckman System Gold workstation, YMC ODS-A 5μ (C18) column, 20×100 mm. For TLC biogram (SOS) analyses, Silica gel plates (Analtech, 0.25 mm) with chloroform-methanol mixtures (i.e. 95:5 v/v) as the mobile phase were used. For HPLC biogram (SOS) analyses, fractions were collected into Beckman 96-deepwell plates using a Gilson 215 liquid handler and dried under nitrogen stream prior to bioassay.” for “corp.”
as §3

The next series deals with SKBR3. The series is described as follows: in vitro cytotoxicity, tumor cell line SKBR3. Type of series: cell-based. Particulars: Homo sapiens, SK-BR-3, read-out: Cytotoxicity IC50. The protocol: as §2, §3
Series [3] deals with Escherichia coli SOS chromotest. In words: Escherichia coli SOS chromotest (TLC/HPLC biogram). Conditions: E. coli SOS chromotest. It is filed as cell-based. An excerpt: The crude extracts as received were subjected to a modified “Kupchan” liquid-liquid partitioning sequence, (Kupchan, S. M., Britton, R. W., Ziegler, M. F., Sigel, C. W.; J. Org. Chem., 1973, 38, 178-179.), followed by gel partition chromatography (Sephadex LH-20) and/or Silica gel vacuum liquid chromatography. The fractionation was guided initially by TLC-bioautography using the Escherichia coli SOS chromotest assay. ((a) Quillardet, P.; Huisman, O.; D'Ari, R.; Hofnung, M. Proc. Natl. Acad. Sci. U.S.A. 1982, 79, 5971-5975. (b) Mamber, S. W.; Okasinski, W. G.; Pinter, C. D.; Tunac, J. B. Mutat. Res., 1986, 171, 83-90.). More precise localization of the peak of SOS activity was later made possible using HPLC biogram methodology. ((a) Fura, A.; Shu, Y.-Z.; Zhu, M.; Hanson, R. L.; Roongta, V.; Humphreys, W. G. J. Med. Chem. 2004, 47, 4339-4351. (b) Hook, D. J., More, C. F., Yacobucci, J. J., Dubay, G., O'Connor, S.; J. Chromatogr., 1987, 385, 99-108.). In this manner, analytical HPLC was used to further fractionate the SOS-active sample into 96-deep-well plates. […]
General Experimental Procedures. […] High-resolution MS data were determined by HR +νe ESI on a Thermo Scientific Finnigan MAT900 (magnetic sector MS, polypropylene glycol reference) or Orbitrap (hybrid ion trap-FTICR MS). IR spectra were recorded with a Perkin-Elmer System 2000 FT-IR instrument (thin film-NaCl). […]

In another series the test system is p388 mouse leukemia. Conditions: cited from earlier work.
The next series relates to various tumor cell lines. Conditions: cited from earlier work.

Structures are written as SMILES. In brackets after ≈: the same amount, converted by molar mass. Where two headings read alike, the source gives them in different places.

A word on the IC50: it is the concentration that inhibits the measured activity by half. Consider `O=c1c2c(O)cccc2oc2ccc3c(c12)CC(C(O)(CO)CCl)O3` (centres unmarked) [Example 1, 3′,4′-deoxy-4′ chloropsoroxanthin-3′,5′-diol], for which the IC50 in the series on 6-cell line panel is 0.2 to 4 mg/L (≈ 0.551 to 11 µM); in the series on HCT-116 (HCT-116, read-out: Cytotoxicity IC50), 0.068 µM; with A2780 (A2780, read-out: Cytotoxicity IC50), 0.042 µM; in [1] it was 0.004 µM; in the series with SKBR3, 2 µM. Moreover, the “selectivity against bovine endothelial cells (ABAE)” value in series [2] was “showed selectivity against bovine endothelial cells (ABAE)”. Also, the SOS activity entry in series [3] is given as “SOS-active”.
`O=c1c2c(O)cccc2oc2ccc3c(c12)CC(C1(CO)CO1)O3` (centres unmarked) [Example 4, Psoroxanthin]: the IC50 in the series on 6-cell line panel (mean over 6-cell line panel) is 0.2 to 4 mg/L (≈ 0.613 to 12.3 µM); in the series on HCT-116 (HCT-116 cell line, read-out: Cytotoxicity IC50), 1 µM; with A2780 (A2780 cell line, read-out: Cytotoxicity IC50), 0.33 µM; in series [1], 0.102 µM. The SOS activity entry in series [3] is recorded as “highly potent SOS-active”.
On to `COc1cc2c(c3oc4c(O)cccc4c(=O)c13)C[C@H]([C@@]1(C)CO1)O2` [psorospermin], for which the “activity in vivo against p388 mouse leukemia” value with p388 mouse leukemia is listed as “significant activity”. Besides, the “activity in vitro against various tumor cell lines” value with various tumor cell lines is reported as “significant activity”.

(Values after patent publication US8263644B2, “Cytotoxic xanthone compounds” (Bristol-Myers Squibb Company, priority 2007, dated 2012).)
